We go through seven molecules from PMC7006686, “A class of carbonic anhydrase IX/XII – selective carboxylate inhibitors” (Journal of Enzyme Inhibition and Medicinal Chemistry, 2020).

Like-named read-outs stand apart in the source and are kept apart here.

Experiment in all cases: stopped-flow CO2 hydrase assay
Holding throughout (assay type): biochemical

The target in one test is T1, hCA II (Homo sapiens, UniProt P00918).
T1 construct: gene CA2; recombinant, obtained in-house; cytosolic isoform
From the text: stopped-flow CO2 hydrase assay on hCA II

Another test concerns the target T2, hCA XII (Homo sapiens, UniProt O43570).
T2 construct: gene CA12; recombinant, obtained in-house
From the text:
stopped-flow CO2 hydrase assay on hCA XII

In the next test the target is T3, hCA IX (Homo sapiens, UniProt Q16790).
T3 construct: gene CA9; recombinant, obtained in-house
The source says: stopped-flow CO2 hydrase assay on hCA IX

A further test addresses T4, hCA I (Homo sapiens, UniProt P00915).
T4 construct: gene CA1; recombinant, obtained in-house; cytosolic isoform
The source says: stopped-flow CO2 hydrase assay on hCA I

T2 sequence (O43570 25-354): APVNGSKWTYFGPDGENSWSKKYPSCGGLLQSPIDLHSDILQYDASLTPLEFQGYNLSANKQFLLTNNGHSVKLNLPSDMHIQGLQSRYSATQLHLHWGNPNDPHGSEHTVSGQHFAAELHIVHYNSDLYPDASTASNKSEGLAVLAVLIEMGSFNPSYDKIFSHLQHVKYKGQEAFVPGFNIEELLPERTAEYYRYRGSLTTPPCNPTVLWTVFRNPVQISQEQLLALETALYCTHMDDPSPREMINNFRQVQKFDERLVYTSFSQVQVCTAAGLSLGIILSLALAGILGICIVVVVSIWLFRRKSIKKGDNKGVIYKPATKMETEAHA
T4 sequence (P00915 2-261): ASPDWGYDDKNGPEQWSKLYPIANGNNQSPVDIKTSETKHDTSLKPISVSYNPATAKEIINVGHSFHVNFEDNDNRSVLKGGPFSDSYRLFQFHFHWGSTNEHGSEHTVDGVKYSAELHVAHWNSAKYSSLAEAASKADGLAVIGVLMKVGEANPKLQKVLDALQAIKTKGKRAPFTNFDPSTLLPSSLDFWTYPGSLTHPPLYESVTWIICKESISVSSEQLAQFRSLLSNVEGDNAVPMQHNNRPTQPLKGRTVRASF

Take `O=C(O)CN1C(=O)SC(=Cc2ccccc2)C1=O` [3a, 2-(5-benzylidene-2,4-dioxothiazolidin-3-yl)acetic acid]: the Ki is more than 100 µM on hCA II, 0.58 µM at hCA XII, 22.2 µM at hCA IX (read-out: hCA IX) and more than 100 µM on hCA I.

On to `Cc1ccc(C=C2SC(=O)N(CC(=O)O)C2=O)cc1` [3b], for which the Ki was more than 100 µM on hCA II, 0.93 µM at hCA XII, more than 100 µM on hCA IX (read-out: hCA I) and more than 100 µM on hCA I.

Regarding `O=C(O)CN1C(=O)SC(=Cc2ccc(Cl)cc2)C1=O` [3c, 2-(5-(4-chlorobenzylidene)-2,4-dioxothiazolidin-3-yl)acetic acid], the Ki on hCA II is more than 100 µM; at hCA XII, 0.66 µM; at hCA IX (read-out: hCA IX) it was 3.1 µM; at hCA I, more than 100 µM.

For the molecule `O=C(O)CN1C(=O)SC(=Cc2ccccc2Cl)C1=O` [3d, 2-(5-(2-chlorobenzylidene)-2,4-dioxothiazolidin-3-yl)acetic acid], the Ki was more than 100 µM at hCA II, 0.47 µM at hCA XII, 24.1 µM on hCA IX (read-out: hCA IX) and more than 100 µM at hCA I.

As for `O=C(O)CN1C(=O)SC(=Cc2ccc(Br)cc2)C1=O` [3e, 2-(5-(4-bromobenzylidene)-2,4-dioxothiazolidin-3-yl)acetic acid], the Ki was more than 100 µM on hCA II, 0.91 µM at hCA XII, 33.3 µM on hCA IX (read-out: hCA IX) and more than 100 µM on hCA I.

Regarding `COc1ccc(C=C2SC(=O)N(CC(=O)O)C2=O)cc1` [3f, 2-(5-(4-methoxybenzylidene)-2,4-dioxothiazolidin-3-yl) acetic acid], the Ki is more than 100 µM on hCA II, 0.85 µM on hCA XII, 3.2 µM at hCA IX (read-out: hCA IX) and more than 100 µM at hCA I.

Consider `COc1cccc(C=C2SC(=O)N(CC(=O)O)C2=O)c1` [3g, 2-(5-(3-methoxybenzylidene)-2,4-dioxothiazolidin-3-yl) acetic acid], for which the Ki at hCA II is more than 100 µM; on hCA XII, 0.3 µM; on hCA IX (read-out: hCA I) it was more than 100 µM; at hCA I, more than 100 µM.
